Source: patent US20230322767A1, “ARYL SUBSTITUTED PYRROLO-PYRIDINONES AND THERAPEUTIC USES THEREOF” (Bayer Aktiengesellschaft, priority 2020, published 2023)

Tests used:
[1] = biological target: CSNK1A1 (Homo sapiens (Human), UniProt P48729); assay: CSNK1A1 Assay 2 (ADP-Glo, 1 μM ATP); type: biochemical; conditions: median, read-out: CSNK1A1 Assay 2 IC50 [mol/l] (median)
Description: CSNK1A1-inhibitory activity of compounds of the present invention in presence of 1 μM adenosine-tri-phosphate (ATP) was quantified employing the CSNK1A1 assay as described in the following paragraphs. In essence, the enzyme activity is measured by quantification of the adenosine-di-phosphate (ADP), which is generated as a co-product of the enzyme reaction, via the “ADP-Glo™ Kinase Assay” kit from the company Promega. This detection system works as follows: In a first step the ATP not consumed in the kinase reaction is quantitatively converted to cAMP employing an adenylate cyclase (“ADP-Glo-reagent”), then the adenylate cyclase is stopped and the ADP generated in the kinase reaction converted to ATP which generates in a luciferase-based reaction a glow-luminescence signal (“Kinase Detection Reagent”).
As substrate for the kinase reaction the biotinylated peptide biotin-Ahx-KRRRAL-pS-VASLPGL (C-terminus in amide form) was used which can be purchased e.g. from the company Biosyntan (Berlin-Buch, Germany).
For the assay 50 nl of a 100 fold concentrated solution of the test compound in DMSO was pipetted into a white 1536-well microtiter plate (Greiner Bio-One, Frickenhausen, Germany), 2 μL of a solution of CSNK1A1 in aqueous assay buffer [50 mM HEPES pH 7.5, 10% (v/v) glycerol, 10 mM MgCl2, 50 mM NaCl, 1 mM dithiothreitol, 0.01% (w/v) bovine serum albumin, 0.01% (v/v) Triton X-100] were added and the mixture was incubated for 15 min at 22° C. to allow pre-binding of the test compounds to the enzyme before the start of the kinase reaction. […] The concentration of CSNK1A1 was adjusted depending of the activity of the enzyme lot and was chosen appropriate to have the assay in the linear range, a typical concentrations are about 0.0375 ng/μL. The reaction was stopped by the addition of 2.5 μL of “ADP-Glo-reagent” (1:1.5 fold diluted with water) and the resulting mixture was incubated at 22° C. for 1 h to convert the ATP not consumed in the kinase reaction completely […]. Subsequently 2.5 μL of the “kinase detection reagent” (1.2 fold more concentrated than recommended by the producer) were added, the resulting mixture was incubated at 22° C. for 1 h and then the luminescence measured with a suitable measurement instrument (e.g. Viewlux™ from Perkin-Elmer). The amount of emitted light was taken as a measure for the amount of ADP generated and thereby for the activity of the CSNK1A1.

[2] = biological target: CSNK1D (Homo sapiens (Human), UniProt P48730); assay: CSNK1D Assay (ADP-Glo, 1 μM ATP); type: biochemical; conditions: median, read-out: CSNK1D IC50 [mol/l] (median)
Chain of CSNK1D (P48730 whole entry): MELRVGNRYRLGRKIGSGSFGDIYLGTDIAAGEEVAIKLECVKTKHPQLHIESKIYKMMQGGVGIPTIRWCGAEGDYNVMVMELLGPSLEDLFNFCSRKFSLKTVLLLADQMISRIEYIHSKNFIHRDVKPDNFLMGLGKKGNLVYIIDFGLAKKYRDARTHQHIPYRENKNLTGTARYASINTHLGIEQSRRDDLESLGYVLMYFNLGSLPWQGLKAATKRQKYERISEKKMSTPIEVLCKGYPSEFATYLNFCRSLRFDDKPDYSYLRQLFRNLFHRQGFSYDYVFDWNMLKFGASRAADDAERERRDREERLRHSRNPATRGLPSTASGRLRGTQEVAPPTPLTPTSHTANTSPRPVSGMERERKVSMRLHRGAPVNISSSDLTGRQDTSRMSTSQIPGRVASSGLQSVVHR
Description: CSNK1D-inhibitory activity of compounds of the present invention in presence of 1 μM adenosine-tri-phosphate (ATP) was quantified employing the CSNK1 D assay as described in the following paragraphs. In essence, the enzyme activity is measured by quantification of the adenosine-di-phosphate (ADP), which is generated as a co-product of the enzyme reaction, via the “ADP-Glo™ Kinase Assay” kit from the company Promega. This detection system works as follows: In a first step the ATP not consumed in the kinase reaction is quantitatively converted to cAMP employing an adenylate cyclase (“ADP-Glo-reagent”), then the adenylate cyclase is stopped and the ADP generated in the kinase reaction converted to ATP which generates in a luciferase-based reaction a glow-luminescence signal (“Kinase Detection Reagent”).
As substrate for the kinase reaction the biotinylated peptide Btn-Ahx-[…] (C-terminus in amide form) was used which can be purchased e.g. from the company Biosyntan (Berlin-Buch, Germany).
For the assay 50 nl of a 100 fold concentrated solution of the test compound in DMSO was pipetted into a white 1536-well microtiter plate (Greiner Bio-One, Frickenhausen, Germany), 2 μL of a solution of CSNK1D in aqueous assay buffer [50 mM HEPES pH 7.5, 10% (v/v) glycerol, 10 mM MgCl2, 50 mM NaCl, 1 mM dithiothreitol, 0.01% (w/v) bovine serum albumin, 0.01% (v/v) Triton X-100] were added and the mixture was incubated for 15 min at 22° C. to allow pre-binding of the test compounds to the enzyme before the start of the kinase reaction. […] The concentration of CSNK1D was adjusted depending of the activity of the enzyme lot and was chosen appropriate to have the assay in the linear range, a typical concentration is about 0.5 ng/μL. The reaction was stopped by the addition of 2.5 μL of “ADP-Glo-reagent” (1:1.5 fold diluted with water) and the resulting mixture was incubated at 22° C. for 1 h to convert the ATP not consumed in the kinase reaction completely […]. Subsequently 2.5 μL of the “kinase detection reagent” (1.2 fold more concentrated than recommended by the producer) were added, the resulting mixture was incubated at 22° C. for 1 h and then the luminescence measured with a suitable measurement instrument (e.g. Viewlux™ from Perkin-Elmer). The amount of emitted light was taken as a measure for the amount of ADP generated and thereby for the activity of the CSNK1D.

Chain of CSNK1A1 (P48729 whole entry): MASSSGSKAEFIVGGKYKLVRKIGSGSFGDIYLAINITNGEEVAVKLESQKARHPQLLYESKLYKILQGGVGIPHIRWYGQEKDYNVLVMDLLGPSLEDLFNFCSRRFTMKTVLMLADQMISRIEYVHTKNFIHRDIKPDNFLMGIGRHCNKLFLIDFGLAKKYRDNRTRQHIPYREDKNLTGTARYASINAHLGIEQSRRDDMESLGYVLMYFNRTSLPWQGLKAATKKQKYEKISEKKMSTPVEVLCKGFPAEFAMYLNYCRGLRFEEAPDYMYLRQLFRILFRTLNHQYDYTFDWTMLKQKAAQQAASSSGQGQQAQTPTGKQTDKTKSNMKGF

| SMILES | IC50 [1] [nM] | IC50 [2] [nM] |
| --- | --- | --- |
| CN1CCc2[nH]c(-c3ccnc(NC(=O)C(CC(F)F)c4ccc(F)cc4)c3)c(-c3ccccc3)c2C1=O (racemic) [Example 2, 4,4-difluoro-2-(4-fluorophenyl)-N-[4-(5-methyl-4-oxo-3-phenyl-4,5,6,7-tetrahydro-1H-pyrrolo[3,2-c]pyridin-2-yl)pyridin-2-yl]butanamide] | 1.7 | 3.3 |
| CN1CCc2[nH]c(-c3ccnc(NC(=O)C(CC(F)F)c4ccc(F)cc4)c3)c(-c3cccnc3)c2C1=O (racemic) [Example 9, 4,4-difluoro-2-(4-fluorophenyl)-N-{4-[5-methyl-4-oxo-3-(pyridin-3-yl)-4,5,6,7-tetrahydro-1H-pyrrolo[3,2-c]pyridin-2-yl]pyridin-2-yl}butanamide] | 7.8 | 9.2 |
| CC(C(=O)Nc1cc(-c2[nH]c3c(CC(F)(F)F)cn(C)c(=O)c3c2-c2ccccc2)ccn1)c1ccc(F)cc1 (racemic) [Example 14, 2-(4-fluorophenyl)-N-{4-[5-methyl-4-oxo-3-phenyl-7-(2,2,2-trifluoroethyl)-4,5-dihydro-1H-pyrrolo[3,2-c]pyridin-2-yl]pyridin-2-yl}propanamide] | 4.7 | 2.7 |
| Cn1cc(CC(F)(F)F)c2[nH]c(-c3ccnc(NC(=O)C(CC(F)F)c4ccc(F)cc4)c3)c(-c3ccccc3)c2c1=O (racemic) [Example 18, 4,4-difluoro-2-(4-fluorophenyl)-N-{4-[5-methyl-4-oxo-3-phenyl-7-(2,2,2-trifluoroethyl)-4,5-dihydro-1H-pyrrolo[3,2-c]pyridin-2-yl]pyridin-2-yl}butanamide] | 5.9 | 3.1 |
| CC(C(=O)Nc1cc(-c2[nH]c3c(CC(F)(F)F)cn(C)c(=O)c3c2-c2ccc(F)cc2)ccn1)c1ccc(F)cc1 (racemic) [Example 22, 2-(4-fluorophenyl)-N-{4-[3-(4-fluorophenyl)-5-methyl-4-oxo-7-(2,2,2-trifluoroethyl)-4,5-dihydro-1H-pyrrolo[3,2-c]pyridin-2-yl]pyridin-2-yl}propanamide] | 6.2 | 3.2 |
| Cn1cc(CC(F)(F)F)c2[nH]c(-c3ccnc(NC(=O)C(CC(F)F)c4ccc(F)cc4)c3)c(-c3ccc(F)cc3)c2c1=O (racemic) [Example 26, 4,4-difluoro-2-(4-fluorophenyl)-N-{4-[3-(4-fluorophenyl)-5-methyl-4-oxo-7-(2,2,2-trifluoroethyl)-4,5-dihydro-1H-pyrrolo[3,2-c]pyridin-2-yl]pyridin-2-yl}butanamide] | 11 | 7.1 |
| Cc1cn(C)c(=O)c2c(-c3ccc(F)cc3)c(-c3ccnc(NC(=O)C(C)c4ccc(F)cc4)c3)[nH]c12 (racemic) [Example 30, 2-(4-fluorophenyl)-N-{4-[3-(4-fluorophenyl)-5,7-dimethyl-4-oxo-4,5-dihydro-1H-pyrrolo[3,2-c]pyridin-2-yl]pyridin-2-yl}propanamide] | 5.7 | 3.8 |
| Cc1cn(C)c(=O)c2c(-c3ccc(F)cc3)c(-c3ccnc(NC(=O)C(CC(F)F)c4ccc(F)cc4)c3)[nH]c12 (racemic) [Example 34, 4,4-difluoro-2-(4-fluorophenyl)-N-{4-[3-(4-fluorophenyl)-5,7-dimethyl-4-oxo-4,5-dihydro-1H-pyrrolo[3,2-c]pyridin-2-yl]pyridin-2-yl}butanamide] | 5.8 | 5.3 |
| Cc1cn(C)c(=O)c2c(-c3ccccc3)c(-c3ccnc(NC(=O)C(C)c4ccc(F)cc4)c3)[nH]c12 (racemic) [Example 38, N-[4-(5,7-dimethyl-4-oxo-3-phenyl-4,5-dihydro-1H-pyrrolo[3,2-c]pyridin-2-yl)pyridin-2-yl]-2-(4-fluorophenyl)propanamide] | 7.8 | 7.1 |
| Cc1cn(C)c(=O)c2c(-c3ccccc3)c(-c3ccnc(NC(=O)C(CC(F)F)c4ccc(F)cc4)c3)[nH]c12 (racemic) [Example 40, N-[4-(5,7-dimethyl-4-oxo-3-phenyl-4,5-dihydro-1H-pyrrolo[3,2-c]pyridin-2-yl)pyridin-2-yl]-4,4-difluoro-2-(4-fluorophenyl)butanamide] | 4 | 4 |
| CC1(C)CNC(=O)c2c1[nH]c(-c1ccnc(NC(=O)C(CC(F)F)c3ccc(F)cc3)c1)c2-c1ccccc1 (racemic) [Example 43, N-[4-(7,7-dimethyl-4-oxo-3-phenyl-4,5,6,7-tetrahydro-1H-pyrrolo[3,2-c]pyridin-2-yl)pyridin-2-yl]-4,4-difluoro-2-(4-fluorophenyl)butanamide] | 2.6 | 2.7 |
| CC(C(=O)Nc1cc(-c2[nH]c3c(c2-c2ccccc2)C(=O)NCC3(C)C)ccn1)c1ccc(F)cc1 (racemic) [Example 46, N-[4-(7,7-dimethyl-4-oxo-3-phenyl-4,5,6,7-tetrahydro-1H-pyrrolo[3,2-c]pyridin-2-yl)pyridin-2-yl]-2-(4-fluorophenyl)propanamide] | 2.7 | 3.3 |
| CN1C(=O)c2c([nH]c(-c3ccnc(NC(=O)C(CC(F)F)c4ccc(F)cc4)c3)c2-c2ccccc2)CC12CCC2 (racemic) [Example 49, 4,4-difluoro-2-(4-fluorophenyl)-N-[4-(5′-methyl-4′-oxo-3′-phenyl-1′,4′,5′,7′-tetrahydrospiro[cyclobutane-1,6′-pyrrolo[3,2-c]pyridin]-2′-yl)pyridin-2-yl]butanamide] | 4.6 | 4.5 |
| CC(C(=O)Nc1cc(-c2[nH]c3c(c2-c2ccccc2)C(=O)N(C)C2(CCC2)C3)ccn1)c1ccc(F)cc1 (racemic) [Example 52, 2-(4-fluorophenyl)-N-[4-(5′-methyl-4′-oxo-3′-phenyl-1′,4′,5′,7′-tetrahydrospiro[cyclobutane-1,6′-pyrrolo[3,2-c]pyridin]-2′-yl)pyridin-2-yl]propanamide] | 3.4 | 3.8 |
| CN1CC(CC2CC2)c2[nH]c(-c3ccnc(NC(=O)Cc4ccc(F)cc4)c3)c(-c3ccccc3)c2C1=O (racemic) [Example 55, N-{4-[7-(cyclopropylmethyl)-5-methyl-4-oxo-3-phenyl-4,5,6,7-tetrahydro-1H-pyrrolo[3,2-c]pyridin-2-yl]pyridin-2-yl}-2-(4-fluorophenyl)acetamide] | 2 | 2.2 |
| CC(C(=O)Nc1cc(-c2[nH]c3c(CC4CC4)cn(C)c(=O)c3c2-c2ccccc2)ccn1)c1ccc(F)cc1 (racemic) [Example 58, N-{4-[7-(cyclopropylmethyl)-5-methyl-4-oxo-3-phenyl-4,5-dihydro-1H-pyrrolo[3,2-c]pyridin-2-yl]pyridin-2-yl}-2-(4-fluorophenyl)propanamide] | 5.2 | 4 |
